Results on one molecule are retold here after patent US20250195624A1, “USE OF SUPEROXIDE DISMUTASE FOR THE TREATMENT AND/OR PREVENTION OF ALLERGIC ASTHMA” (ISOCELL S.A.S., priority 2022, published 2025).

Assay type in all cases: in vivo, Balb/cj mice
For test [1], the system named is house dust mite (HDM) allergy induced mice. The test is described as follows: Tissular degradation: histological analysis of lung samples (eosin and hematoxylin), scoring system. The conditions noted are these: double blind scoring. The protocol:
An allergic asthma murine model involving exposure to house dust mites was used. This model comprises a preliminary percutaneous sensitisation challenge phase of Balb/cj mice with a whole house dust mite extract (days 0, 7, 14, and 21), followed by two intranasal stimulations (days 27 and 34) which induced the symptoms of allergy-induced asthma in the test subjects. The efficacy of the Glisodin formulations was evaluated by daily administration to the mice via force feeding of 5 mg of the Glisodin formulation diluted in water, starting at 24 hours after the first intranasal sensitisation challenge and continuing for 5 consecutive days every week for 5 weeks. […]
In situ evaluation of inflammation, bronchoconstriction and asthma severity were carried out via histological analysis, through staining of lung samples from the various mouse groups with eosin and hematoxylin, with a population of 6 mice per group, the images being shown at a scale of 100 μm, as illustrated in FIG. 13. The degree of tissular degradation was assessed in a double blind protocol by two independent assessors using a scoring system. […]

Test [2] deals with IgE specific to house dust mites and MCP-1. The test is described as follows: Humoral response: serum HDM-specific IgE by ELISA and MCP-1 production. The conditions noted are these: asthmatic mice. The text has this:
An allergic asthma murine model involving exposure to house dust mites was used. This model comprises a preliminary percutaneous sensitisation challenge phase of Balb/cj mice with a whole house dust mite extract (days 0, 7, 14, and 21), followed by two intranasal stimulations (days 27 and 34) which induced the symptoms of allergy-induced asthma in the test subjects. […] For comparative purposes, the same protocol was used to evaluate the effect of a combined administration of Glisodin with salbutamol, in which case the salbutamol was administered for 30 seconds at a solution concentration of 5 mg/ml as a nebulized aerosol 1 hour before each sensitisation challenge. In allergic asthma, once the antigen has been recognised, clonal selection and proliferation taken place, followed by B lymphocyte differentiation into plasmocytes, the formation of the immune complex between IgE and allergens leads to degranulation of the effecting cells and liberation of chemical mediators such as histamine and MCP-1. In order to evaluate the effect of Glisodin treatment, with respect to initiation of an asthma attack, serum levels of IgE were measured by ELISA for IgE specific to house dust mites and measurements made of the levels of production of MCP-1. […]
On the technique in general: ELISA stands for enzyme-linked immunosorbent assay.

For test [3], the system named is cell population from bronchoalveolar lavages (BAL). The test is described as follows: Inflammatory response: BAL cell population by flow cytometry, HDM allergy induced mice. The following applies: asthmatic mice. The protocol:
(§1) An allergic asthma murine model involving exposure to house dust mites was used. This model comprises a preliminary percutaneous sensitisation challenge phase of Balb/cj mice with a whole house dust mite extract (days 0, 7, 14, and 21), followed by two intranasal stimulations (days 27 and 34) which induced the symptoms of allergy-induced asthma in the test subjects. The efficacy of the Glisodin formulations was evaluated by daily administration to the mice via force feeding of 5 mg of the Glisodin formulation diluted in water, starting at 24 hours after the first intranasal sensitisation challenge and continuing for 5 consecutive days every week for 5 weeks. For comparative purposes, the same protocol was used to evaluate the effect of a combined administration of Glisodin with salbutamol, in which case the salbutamol was administered for 30 seconds at a solution concentration of 5 mg/ml as a nebulized aerosol 1 hour before each sensitisation challenge.
At the end of the study protocol on mice, bronchoalveolar lavage (BAL) were taken and the cell population analysed using flow cytometry. […] ANOVA analysis of the data using the Tukey test was carried out and a confidence interval as indicated on the charts established: *=p<0.05, ** p<0.01 and *** p<0.001, in a population of n-6 to 8 mice per group.
(In general: Flow cytometry measures light scatter and fluorescence of single cells or particles in a stream.)

The subject of test [4] is house dust mite (HDM) allergy induced mice. The test is described as follows: Respiratory function by flexiVent in response to methacholine, HDM allergy induced mice. The following applies: asthmatic mice, increasing doses of methacholine. The protocol:
as §1
Respiratory function in the mice was analysed using the flexi Vent™ system available from SciReq and the results illustrated in FIGS. 7 and 8. […] Respiratory function was measured using the flexiVent™ system in response to increasing doses of the broncho-constrictor methacholine. […]
The efficacy of Glisodin was also analysed in combination with salbutamol, a B2-adrenergic receptor agonist having a bronchodilatory and anti-inflammatory activity, as used in the treatment of asthma attacks, the results of which are illustrated in FIG. 8. […] In the charts, CTL or control indicates naïve untreated, untreated asthmatic mice (HDM), asthmatic mice having received salbutamol treatment (Salbutamol), asthmatic mice having received salbutamol and wheat Glisodin (Salbu Wheat) or asthmatic mice having received salbutamol with melon Glisodin (Salbu Melon), all measured by flexi Vent in response to increasing doses of the bronchoconstrictor methacholine. […]

In the next test the test system is IL-5, IL-13, IL-17. The test is described as follows: Cytokine response in supernatant of BAL. The following applies: asthmatic mice. How it is done: as §1
Cytokines are produced in response to antigens present at the surface of foreign bodies or by molecules considered as foreign by the immune. […] In the present case, Th2 inflammatory pathway cytokines, for example, IL-5 and IL-13, and Th17 cytokines, such as IL-17 were measured in the supernatant of BAL of the various mouse groups, and the results illustrated in FIG. 12, with application of ANOVA analysis of the data using the Tukey test leading to a confidence interval as indicated on the charts established: *=p<0.05, ** p<0.01 and *** p<0.001, in a population n=6 to 8 mice per group.

The test system of test [5] is Th1, Th2 and Th17 lymphocyte. The test is described as follows: Immune response: lung cells restimulated with whole dust mite extract, flow cytometry. The conditions noted are these: lungs of asthmatic mice. How it is done:
as §1
At the end of the treatment protocol, mice lungs were harvested, ground, restimulated with whole dust mite extract and the resulting cell populations analysed using flow cytometry. The results are illustrated in FIG. 10, in which the following cell types were counted: Th1 (CD3+, CD4+, IFNγ+), Th2 (CD3+, CD4+, IL-13+) and Th17 (CD3+, CD4+, IL-17+). […]

Take `CC(C)(C)NCC(O)c1ccc(O)c(CO)c1` (stereo not shown) [salbutamol]: in test [1], the “severity of the asthma (degree of tissular degradation, histological score)” value is recorded as “reduction”. Also, in test [2], the “level of MCP-1 produced” value is on record as “reduced”. Moreover, in test [2] (serum), the “level of HDM-specific IgE” value is “able to reduce”. Besides, in test [3] (BAL), the number of eosinophils entry is “reduction” and the number of lymphocytes result is on record as “reduction”. In addition, the “total number of cells in the BAL and lungs” value in test [3] (vs untreated asthmatic mice) was “reduction”. In test [4], the compliance entry is “significant effect on the improvement”, the elastance entry was “significant effect on the improvement” and the “resistance of the airways” value was “significant effect on the improvement”. Also, in the test with IL-5, IL-13, IL-17, the IL-5 count entry is reported as “effective in reducing”, the IL-17 count result is “tendency to decrease” and the “level of IL-13” value was “neither salbutamol nor the various Glisodin formulations tested were able to reduce”. The Th1 lymphocyte numbers result in test [5] is given as “reduction”.
